Here are results for 1 substance from US20040022788A1, “Compositions and methods for promoting or inhibiting angiogenesis” (priority 1998, published 2004).

Experiment [1] addresses T1, purified bovine F1 ATP synthase (Bos taurus, UniProt P00829+P19483).
T1 construct: from tissue; host or cells: bovine heart mitochondria
Nature of the experiment: ELISA binding of angiostatin to purified F1 ATP synthase. The note with it: double-reciprocal plots; 1 μg F1 ATP synthase per well; read-out: apparent dissociation constant Kd(app). The procedure:
FIG. 11 is a bar graph showing the binding of angiostatin to purified bovine F1 ATP synthase. ELISA was used to determine concentration-dependent binding of angiostatin to a constant amount of F1 ATP synthase. Each well was coated with 1 μg of F1 ATP synthase prior to addition of […] amounts of angiostatin.
ELISA Binding Studies. Binding studies were performed with purified F1 subunit of bovine ATP synthase ([…]) passively adsorbed onto polyvinylchloride microtiter 96-well flat bottom plates (Dynex Technologies, Inc, Chantilly, Va.) as previously described (22). Briefly, plates were coated with protein in 50 μl of 0.1M Na2CO3, pH9.6 and incubated 2 h at 37° C. Non-specific sites were blocked by incubating with PBS, pH 7.0 containing 1% BSA for 30 min at rt. Binding studies were performed with increasing amounts of angiostatin (0-0.5 mg/ml) added in a […] for 1 h at 37° C. Plates were washed (0.1% Tween20/PBS, pH 7.0) and incubated with anti-human angiostatin antibody (goat IgG) (R&D Systems, Minneapolis, Minn.) (1:200 dil) overnight at 4° C. […] Plates were washed and 150 μl of OPD substrate was added to each well and the reaction stopped with 25 μl of H2SO4 (25%), before monitoring the absorbance at λ=492 nm in a Molecular Devices SpectraMax Plus-384 plate reader. […]
(In general: An ELISA detects its analyte on a solid surface through an enzyme-linked reagent.)

In experiment [2] the test system is HUVEC. The experiment can be described thus: HUVEC proliferation assay (MTS/PMS). The class given is cell-based, human. Particulars: for Percent proliferation inhibited, ±SEM, Without Antibody: 24 h. On the procedure: Proliferation Assay. HUVEC were plated at a density of 5,000 cells/well in media depleted of FCS overnight to allow the cells to become quiescent. […] In some experiments antibody directed against the alpha subunit of ATP synthase derived from E. coli was also added at a dilution of 1:10. MTS/PMS [(3-(4,5-dimethylthiazol-2-yl)-5-(3-carboxymethoxyphenyl)-2-(4-sulfophenyl)-2H-tetrazolium inner salt/phenazine methosulfate] solution was added after 24 h, and the absorbance of formazan was quantitated on a Thermomax plate reader at a wavelength of 490 nm according to the manufacturer's specifications (Promega). The absorbance values used to calculate the percent proliferation of the cells ranged from 0.81 for untreated, 0.60 for treated, and 0.47 for baseline quiescent cells.
Anti-alpha-subunit ATP synthase antibody derived from E. coli was added concomitantly at a dilution of 1:10. MTS/PMS solution was added and absorbance of formazan was quantitated according to the manufacturer's specifications. Results represent three separate experiments performed in duplicate with SEM. Percent recovery represents the ability of the anti-alpha-subunit ATP synthase antibody to block the antiproliferative effect of angiostatin, and thereby restore proliferation to an average of 81% of that obtained with the control cells.

Experiment [3] concerns the target T2, ATP synthase on the surface of HUVEC (Homo sapiens, UniProt P05496+P06576+P25705).
T2 construct: endogenous in cells; host or cells: HUVEC (primary human umbilical vein endothelial cells)
Nature of the experiment: Cell-surface ATP generation by bioluminescent luciferase assay. The class given is cell-based. On the procedure:
Cell-surface ATP Assay. […] Cells were treated with (1 μM) angiostatin or (0.1 mg/mL) oligomycin for 1 hr at 37° C. All cells were then incubated with 0.1 Ci ^32P and 0.1 Ci ([…]) [2,8-^3H]-ADP (NEN Life Sciences) for 1 min. Supernatants were removed and centrifuged before assaying for ATP production by thin layer chromatography (TLC) or by firefly luciferase assay. ATP Generation by Bioluminescent Luciferase Assay. […] Louis, Mo.). In this firefly luciferin-luciferase reaction, only ATP is readily detected since the enzymatic reaction of firefly luciferase to oxidize luciferin is specific for ATP relative to all other nucleotides. Samples were injected with the ATP assay mixture and recordings were made in a LuminoskanRS (LabSystems, Franklin, Mass.) over a 10 s period. The response in a given sample or standard was quantified as area under the peak of the response and averaged for duplicate determinations. Data are expressed as picomoles of ATP produced per cell based on standards determined under the same conditions with each experiment. Angiostatin was prepared as described in Sottrup-Jensen, […]., Petersen, T. E. & Magnusson, S. (1978) Progress in Chemical Fibrinolysis and Thrombolysis (Raven Press, New York).

The test system of experiment [4] is HUVEC. The experiment can be described thus: Direct binding of 125I-labeled plasminogen or angiostatin to endothelial cells, Scatchard analysis. Details: species or system human. Particulars: 125I-labeled ligand, 1 h at 4° C., read-out: apparent dissociation constant (Kd). The procedure: FIGS. 1A and 1B. Direct binding assay and Scatchard analysis of plasminogen and angiostatin with endothelial cells. HUVEC were plated at a density of 10,000 cells/well and incubated with increasing concentrations of ^125I-labeled-plasminogen or angiostatin. FIG. 1A. ^125I-labeled plasminogen binding was concentration-dependent and saturable with an apparent dissociation constant ([…]) of 158 nM and 870,000 sites/cell. FIG. 1B. […] Error bars represent standard deviation.
(§1) Binding Assays. Ligands were radioiodinated by using Iodobeads (Pierce), repurified on L-lysine-Sepharose, eluted with 100 mM ε-aminocaproic acid, and dialyzed in PBS, pH 7.0 before use in binding assays. HUVEC were plated at a density of 5,000 or 10,000 cells/well and incubated with increasing concentrations of ^125I-labeled ligand in media containing 1% BSA for 1 h at 4° C. in 96-well plates. Wells were washed, and remaining bound radioactivity was quantified by using an LKB 1272 γ-radiation counter. Nonspecific binding was measured in the presence of excess unlabeled ligand.

Experiment [5] concerns plasminogen binding sites on HUVEC. Nature of the experiment: Competition binding assay, 125I-labeled plasminogen on HUVEC. More on the design: species or system human. Particulars: 1.0 μM 125I-labeled plasminogen; 100-fold molar excess of unlabeled angiostatin. The procedure: FIG. 2. Competition binding assay between plasminogen and angiostatin. HUVEC were plated at a density of 10,000 cells/well and incubated with 1.0 μM ^125I-labeled plasminogen in the presence of 100-fold molar excess of unlabeled angiostatin for 1 h at 4° C. Cells were washed and the remaining radioactivity was quantified by γ-counting.
as §1

pKd: −log10 of the molar value. Entries after “also recorded” stand apart in the source; their conditions may differ.

Consider angiostatin, for which the negative logarithm of the Kd (pKd) (in general, −log10 of the Kd, conventionally taken in molar units) in experiment [1] is 7.92; with HUVEC [4] it was 6.61. Besides, the “Percent proliferation inhibited, ±SEM, With antibody” value was determined as 1 ± 0.2% in the experiment with HUVEC [2] (angiostatin 0.5 μM plus anti-alpha subunit ATP synthase antibody 1:10), 5 ± 4.1% in the experiment with HUVEC [2] (angiostatin 0.75 μM plus anti-alpha subunit ATP synthase antibody 1:10) and 6 ± 0.8% in the experiment with HUVEC [2] (angiostatin 1.0 μM plus anti-alpha subunit ATP synthase antibody 1:10). The “Percent proliferation inhibited, ±SEM, Without Antibody” value with HUVEC [2] (angiostatin 0.5 μM) came to 10 ± 1.4%; in the experiment on HUVEC [2] (angiostatin 0.75 μM) it was 25 ± 4.2%; in the experiment on HUVEC [2] (angiostatin 1.0 μM), 23 ± 9.0%. For the same substance, the “Percent Inhibition (+/− S.E.M.) of ATP generation” value in experiment [3] (1 μM, 50 μM ADP) is given as 81%. Besides, the “inhibition of ATP generation with increasing concentrations” value in experiment [3] (increasing concentrations of angiostatin) was “dose-dependent manner”. Further, in experiment [5], the “inhibition of 125I-labeled plasminogen binding” value was “unaffected; also recorded: no inhibition; also recorded: not inhibited”.
